Reference: BindingDB's records for doi:10.1016/j.jmb.2008.04.054 (Gilead Sciences, 2008)
pIC50: −log10 of the molar value.

What follows are compounds tested against T1, Gag-Pol polyprotein [1148-1435] (Human immunodeficiency virus 1, UniProt P04585) (assay: Integrase 3-End Joining Assay). Conditions: pH 7.3; 22 °C.
T1 construct: 1148-1435
Method: In the 3-end joining assay, the biotinylated donor DNA was bound to streptavidin-coated plates, and integrase was added to each well to allow processing of the donor DNA. Serially diluted compounds and DIG-tagged target DNA were then added to each well, and 3-end joining reaction was allowed to proceed for 30 min. Signal was detected using horseradishperoxidase-conjugated anti-Digoxin antibody through chemiluminescence measurement.
Compound `COc1c2c(cc3ncccc13)C(=O)N(Cc1ccc(F)cc1)C2` [7-[(4-fluorophenyl)methyl]-5-methoxy-6H,7H,8H-pyrrolo[3,4-g]quinolin-8-one] has a pIC50 of 4.62.
Compound `CC[C@H](CO)n1cc(C(=O)O)c(=O)c2cc(Cc3cccc(Cl)c3F)ccc21` [6-[(3-chloro-2-fluorophenyl)methyl]-1-[(2R)-1-hydroxybutan-2-yl]-4-oxo-1,4-dihydroquinoline-3-carboxylic acid] has a pIC50 of 7.38.
`O=C(O)C(=O)CC(=O)c1cccc(Cc2ccccc2)c1` [(2Z)-4-(3-benzylphenyl)-2-hydroxy-4-oxobut-2-enoic acid] was tested, and the pIC50 was 7.59.
With `O=C(NCc1ccc(F)cc1)c1nc(N2CCCCS2(=O)=O)c2cccnc2c1O` [5-(1,1-dioxo-1,2-thiazinan-2-yl)-N-[(4-fluorophenyl)methyl]-8-hydroxy-1,6-naphthyridine-7-carboxamide] the pIC50 was 7.36.
With `COc1c2c(c(OC)c3ncccc13)C(=O)N(Cc1ccc(F)cc1)C2` [7-[(4-fluorophenyl)methyl]-5,9-dimethoxy-6H,7H,8H-pyrrolo[3,4-g]quinolin-8-one] the pIC50 was < 3.00.
For `COc1c2c(c(O)c3ncccc13)C(=O)N(Cc1ccc(F)cc1)C2`, the pIC50 was 7.22.
